According to article PMC6901909, “Synergy Pattern of Short Cationic Antimicrobial Peptides Against Multidrug-Resistant Pseudomonas aeruginosa” (Frontiers in Microbiology, 2019):
≈ marks a conversion by molar mass, not a printed value. Where two headings read alike, the source gives them in different places. Blank lines part the entries; values can stand above or below the compound they belong to.

Tests used:
[1] = system: MDR P. aeruginosa PA 910; experiment: microbe, parasite or virus in culture; type: cell-based, Pseudomonas aeruginosa; details: for MIC: Pseudomonas aeruginosa
Summary of the method: (§1)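 Clinical and municipal waste-water MDR isolates were tested by broth microdilution in Mueller-Hinton broth with twofold serial dilutions at 2–5 10^5 CFU/ml. Plates were incubated 18 h at 37°C in polypropylene plates. MIC was read visually.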

[2] = system: MDR P. aeruginosa PA 915; experiment: microbe, parasite or virus in culture; type: cell-based, Pseudomonas aeruginosa; details: Pseudomonas aeruginosa; conventional antibiotics; microdilution, Mueller-Hinton broth, 2–5 10^5 CFU/ml, 18 h at 37°C, read visually; at least three repeats (n = 3)
Summary of the method: as §1

[3] = system: MDR P. aeruginosa PA 919; experiment: microbe, parasite or virus in culture; type: cell-based, Pseudomonas aeruginosa; details: for MIC: Pseudomonas aeruginosa, conventional antibiotics, 2–5 10^5 CFU/ml, at least three repeats (n = 3)
Summary of the method: as §1

[4] = system: MDR P. aeruginosa PA 923; experiment: microbe, parasite or virus in culture; type: cell-based, Pseudomonas aeruginosa; details: Pseudomonas aeruginosa; conventional antibiotics; microdilution, Mueller-Hinton broth, 2–5 10^5 CFU/ml, 18 h at 37°C, read visually; at least three repeats (n = 3)
Summary of the method: as §1

[5] = system: MDR P. aeruginosa PA 927; experiment: microbe, parasite or virus in culture; type: cell-based, Pseudomonas aeruginosa; details: Pseudomonas aeruginosa; conventional antibiotics; microdilution, Mueller-Hinton broth, 2–5 10^5 CFU/ml, 18 h at 37°C, read visually; at least three repeats (n = 3)
Summary of the method: as §1

[6] = system: MDR P. aeruginosa PA253; experiment: microbe, parasite or virus in culture; type: cell-based, Pseudomonas aeruginosa; details: for MIC: Pseudomonas aeruginosa, conventional antibiotics, 2–5 10^5 CFU/ml, at least three repeats (n = 3)
Summary of the method: as §1

[7] = system: P. aeruginosa PA01-wt; experiment: microbe, parasite or virus in culture; type: cell-based, Pseudomonas aeruginosa; details: for MIC: Pseudomonas aeruginosa, PA01WT, conventional antibiotics, 2–5 10^5 CFU/ml, at least three repeats (n = 3)
[8] = system: MDR isolate of P. aeruginosa (PA 910); details: checkerboard, MHb, for the Indopt versions 1/8 MHb, 2–5 × 10^5 CFU/ml, 37°C, 18 h, visual, determined once (n = 1)
Protocol: The checkerboard assay was used to determine the fractional inhibitory concentrations (FICs), following the protocol described in Koneman’s Color Atlas and Textbook of Diagnostic Microbiology ([Winn et al., 2006]). Briefly, combinations of peptides and antibiotics were prepared in 96-well plates (polypropylene, Corning) in a twofold dilution series. After the addition of a log-phase bacterial inoculum of 2–5 × 10^5 CFU/ml, plates were incubated at 37°C for 18 h. The FICs were determined by visual inspection and the effects of the combinations were determined using the FICs. The FIC was computed by adding two partial FIC values, FICA—the MIC of drug A, tested in combination with drug B divided by the MIC of drug A, tested alone and FICB—the MIC of drug B, tested in combination with drug A divided by the MIC of drug B, tested alone [FIC = FICA + FICB = (MICAB/MICA) + (MICBA/MICB), where MICA and MICB are the MICs of drugs A and B alone, respectively, and MICAB and MICBA are the MIC concentrations of the drugs in combination]. Here we use the European Committee for Antimicrobial Susceptibility Testing (EUCAST) definition, which is very similar to the definition provided by [Odds, 2003], except Odds define additive effects when FIC values are between 0.5 and 1 ([European Committee for Antimicrobial Susceptibility Testing [EUCAST] of the European Society of Clinical Microbiology and Infectious Diseases [ESCMID], 2000]; [Odds, 2003]). The combination of peptide (drug A) and antibiotics (drug B) was defined as synergistic if the FIC was ≤ 0.5, indifferent if the FIC was > 0.5 but ≤ 4.0 and antagonistic if the FIC was > 4.0.

[9] = 18 h, antibiotic alone, as listed in the FIC table, read-out: MIC against PA910 in μM (antibiotics, head of Table 4)
[10] = conventional antibiotics, microdilution, Mueller-Hinton broth, 2–5 10^5 CFU/ml, 18 h at 37°C, read visually, at least three repeats (n = 3), read-out: MIC PA 910
[11] = microdilution, Mueller-Hinton broth, 18 h at 37°C, read visually
[12] = four classes defined from the MIC values, 1 strong to 4 weak
[13] = short AMPs, microdilution, Mueller-Hinton broth, 18 h at 37°C, read visually, triplicate (n = 3)

Compound: CC(C)(O/N=C(\C(=O)N[C@@H]1C(=O)N2C(C(=O)[O-])=C(C[n+]3ccccc3)CS[C@H]12)c1csc(N)n1)C(=O)O [Ceftazidime]
MIC [1, 9]: 64 µM
MIC [1, 10]: 128 µM (≈ 70 µg/mL)
MIC [2]: 4 µM (≈ 2.19 µg/mL)
MIC [3, 11]: 8 µM (≈ 4.37 µg/mL)
MIC [4]: 128 µM (≈ 70 µg/mL)
MIC [5]: > 128 µM
MIC [6, 11]: > 128 µM
MIC [7, 11]: 4 µM (≈ 2.19 µg/mL)

Compound: CC[C@H](C)[C@H](NC(=O)[C@H](CCCCN)NC(=O)[C@H](CCC(=O)O)NC(=O)[C@H](CCCCN)NC(=O)[C@H](CO)NC(=O)[C@H](CCCCN)NC(=O)[C@H](CCCNC(=N)N)NC(=O)[C@H](Cc1ccccc1)NC(=O)[C@H](Cc1ccccc1)NC(=O)[C@H](CC(=O)O)NC(=O)CNC(=O)[C@H](CC(C)C)NC(=O)[C@@H](N)CC(C)C)C(=O)NCC(=O)N[C@@H](CCCCN)C(=O)N[C@@H](CCC(=O)O)C(=O)N[C@@H](Cc1ccccc1)C(=O)N[C@@H](CCCCN)C(=O)N[C@@H](CCCNC(=N)N)C(=O)N[C@H](C(=O)N[C@H](C(=O)N[C@@H](CCC(N)=O)C(=O)N[C@@H](CCCNC(=N)N)C(=O)N[C@H](C(=O)N[C@@H](CCCCN)C(=O)N[C@@H](CC(=O)O)C(=O)N[C@@H](Cc1ccccc1)C(=O)N[C@@H](CC(C)C)C(=O)N[C@@H](CCCNC(=N)N)C(=O)N[C@@H](CC(N)=O)C(=O)N[C@@H](CC(C)C)C(=O)N[C@H](C(=O)N1CCC[C@H]1C(=O)N[C@@H](CCCNC(=N)N)C(=O)N[C@H](C(=O)N[C@@H](CCC(=O)O)C(=O)N[C@@H](CO)C(=O)O)[C@@H](C)O)C(C)C)[C@@H](C)CC)C(C)C)[C@@H](C)CC [LL37]
activity class by MIC (number in brackets), PA910 [1, 12]: 4 (the least active class includes peptides with MIC values larger than 32 μM)
MIC against PA910 in μM (peptides, Table 4) ([1]; peptide alone, as listed in the FIC table): 64 µM
MIC against MDR isolates of PA, PA910 [1, 13]: 64 µM
activity class by MIC (number in brackets), PA919 [3, 12]: 3 (class 3 includes peptides with MIC values between 16 and 32 μM)
MIC against MDR isolates of PA, PA919 [3, 13]: 16 µM
activity class by MIC (number in brackets), PA253 [6, 12]: 4 (the least active class includes peptides with MIC values larger than 32 μM)
MIC against MDR isolates of PA, PA253 [6, 13]: 64 µM
activity class by MIC (number in brackets), PA01 wt [7, 12]: 3 (class 3 includes peptides with MIC values between 16 and 32 μM)
MIC against PA01 wt [7, 13]: 16 µM (≈ 71.9 µg/mL)
FIC, combination with AMI ([8]; peptide + amikacin): 2
FIC, combination with CEF ([8]; peptide + cefepime): 2
FIC, combination with CET ([8]; peptide + ceftazidime): 0.75
FIC, combination with CIP ([8]; peptide + ciprofloxacin): 0.51
FIC, combination with ERY ([8]; peptide + erythromycin): 0.51
FIC, combination with GEN ([8]; peptide + gentamycin): 2
FIC, combination with IMI ([8]; peptide + imipenem): 1
FIC, combination with KAN ([8]; peptide + kanamycin): 1
FIC, combination with MER ([8]; peptide + meropenem): 0.51
FIC, combination with PIP ([8]; peptide + piperacillin): 2
FIC, combination with PMB ([8]; peptide + polymyxin B): 0.63
FIC, combination with TET ([8]; peptide + tetracycline): 0.5
FIC, combination with TOB ([8]; peptide + tobramycin): 2

Compound: NCC[C@H](O)C(=O)N[C@@H]1C[C@H](N)[C@@H](O[C@H]2O[C@H](CN)[C@@H](O)[C@H](O)[C@H]2O)[C@H](O)[C@H]1O[C@H]1O[C@H](CO)[C@@H](O)[C@H](N)[C@H]1O [Amikacin]
MIC [1, 9]: 2 to 4 µM
MIC [1, 10]: 2 to 4 µM (≈ 1.17 to 2.34 µg/mL)
MIC [2]: 4 µM (≈ 2.34 µg/mL)
MIC [3, 11]: 32 µM (≈ 18.7 µg/mL)
MIC [4]: 4 µM (≈ 2.34 µg/mL)
MIC [5]: 4 µM (≈ 2.34 µg/mL)
MIC [6, 11]: 8 to 16 µM (≈ 4.68 to 9.37 µg/mL)
MIC [7, 11]: 1 µM (≈ 0.586 µg/mL)

Continued, values first:

MIC [1, 9]: 64 to 128 µM
MIC [1, 10]: 64 to 128 µM (≈ 33.1 to 66.2 µg/mL)
MIC [2]: > 256 µM
MIC [3, 11]: 64 µM (≈ 33.1 µg/mL)
MIC [4]: 128 µM (≈ 66.2 µg/mL)
MIC [5]: 256 µM (≈ 132 µg/mL)
MIC [6, 11]: > 256 µM
MIC [7, 11]: 4 µM (≈ 2.07 µg/mL)
Compound: CCN1CCN(C(=O)N[C@@H](C(=O)N[C@@H]2C(=O)N3[C@@H]2SC(C)(C)[C@@H]3C(=O)O)c2ccccc2)C(=O)C1=O [Piperacillin]

MIC [1, 9]: > 128 µM
MIC [1, 10]: > 128 µM
MIC [2]: > 128 µM
MIC [3, 11]: > 128 µM
MIC [4]: > 128 µM
MIC [5]: > 128 µM
MIC [6, 11]: > 128 µM
MIC [7, 11]: 2 to 4 µM (≈ 0.767 to 1.53 µg/mL)
Compound: C[C@@H](O)[C@H]1C(=O)N2C(C(=O)O)=C(S[C@@H]3CN[C@H](C(=O)N(C)C)C3)[C@H](C)[C@H]12 [Meropenem]
